Legend:
[1] = Encapsulation efficiency of RNA in nanoparticle compositions (RIBOGREEN assay); assay type: physicochemical; settings: Table 1A; lipid:DSPC:cholesterol:PEG-DMG 50:10:38.5:1.5 mol %
Method in brief: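 Lipid nanoparticles (ionisable lipid:DSPC:cholesterol:PEG-DMG 50:10:38.5:1.5 mol %) carrying N1-methylpseudouridine luciferase or hEPO mRNA diluted to about 5 μg/mL in TE, pH 7.5, with or without 2% Triton X-100, 15 min at 37° C. RiboGreen fluorescence (ex ~480, em ~520 nm) blank-subtracted; free RNA = intact/disrupted signal.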

modified luciferase = test: Luciferase expression in liver, lung, spleen and femur 6 hours after intravenous administration to mice; assay type: in vivo; settings: 6 hours after intravenous 0.5 mpk, mice
Method in brief: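 Nanoparticle formulations of the modified luciferase were given intravenously to mice (n=3) at 0.5 mpk. Bioluminescence was measured after 6 hours as total light flux. Standard MC3 formulation and PBS run as controls.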

luciferase (Luc) mRNA = test: Luciferase expression (whole body bioluminescence) after intravenous administration to mice; assay type: in vivo; settings: for Novel lipid/MC3 expression ratio, i.v.: 6 hr. time point, relative to MC3 formulation
Procedure: In order to monitor how effectively various nanoparticle compositions deliver therapeutic and/or prophylactics to targeted cells, different nanparticle compositions including a particular therapeutic and/or prophylactic (for example, a modified or naturally occurring RNA such as an mRNA) are prepared and administered to rodent populations. Mice are intravenously, intramuscularly, intraarterially, or intratumorally administered a single dose including a nanoparticle composition with a formulation such as those provided in Example 3. In some instances, mice may be made to inhale doses. Dose sizes may range from 0.001 mg/kg to 10 mg/kg, where 10 mg/kg describes a dose including 10 mg of a therapeutic and/or, prophylactic in a nanoparticle composition for each 1 kg of body mass of the mouse. A control composition including PBS may also be employed.
Upon administration of nanoparticle compositions to mice, dose delivery profiles, dose responses, and toxicity of particular formulations and doses thereof can be measured by enzyme-linked immunosorbent assays (ELISA), bioluminescent imaging, or other methods. For nanoparticle compositions including mRNA, time courses of protein expression can also be evaluated. Samples collected from the rodents for evaluation may include blood, sera, and tissue (for example, muscle tissue from the site of an intramuscular injection and internal tissue); sample collection may involve sacrifice of the animals.
The efficacy of the nanoparticle compositions presented in Table 1A was evaluated with a bioluminescence study. Formulations were administered intravenously to mice (n=6) at a dosage of 0.5 mg/kg (mpk) and bioluminescence measured at 3, 6, and 24 hour time points. The standard MC3 formulation and, in some instances, a control (e.g., a PBS control) were evaluated for comparison. […] In general, flux decreased as time progressed to less than 10% of the initial flux.
The total flux (measured by area under the curve, AUC) induced by administration of a formulation including a given lipid relative to that induced by administration of a formulation including MC3 was also measured for several lipids.

[2] = Particle size and polydispersity index of nanoparticle compositions (Zetasizer Nano ZS); assay type: physicochemical
Method in brief: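 Size and PDI measured by Zetasizer Nano ZS in 1×PBS (zeta potential in 15 mM PBS). Lipid nanoparticles contained test ionizable lipid:DSPC:cholesterol:PEG-DMG at 50:10:38.5:1.5 mol % with N1-methyl-pseudouridine mRNA encoding luciferase or hEPO.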

[3] = intravenous administration (Table 3D)
[4] = Table 1A, lipid:DSPC:cholesterol:PEG-DMG 50:10:38.5:1.5 mol %

| SMILES | EE [1] | Total Flux, Liver (modified luciferase) | Total Flux, Lung (modified luciferase) | Total Flux, Spleen (modified luciferase) | AUC (luciferase (Luc) mRNA; [3]) | Size [2, 4] | Size ([2]; Table 1D, compositions for subcutaneous administration, # formulated with hEPO mRNA) | AUC (luciferase (Luc) mRNA; i.v. administration (Table 3C)) | Novel lipid/MC3 ratio, i.v. (luciferase (Luc) mRNA; Table 3G, intravenous, luciferase, 6 hr. timepoint, relative to MC3) | Novel lipid/MC3 expression ratio, i.v. (luciferase (Luc) mRNA; intravenous, luciferase) | Size ([2]; Table 1C, compositions for subcutaneous administration) |
| --- | --- | --- | --- | --- | --- | --- | --- | --- | --- | --- | --- |
| CCCCCCCCCC(=O)OCCCCCCCN(CCO)CCCCCCCC(=O)OC(CCCCCCCC)CCCCCCCC [Compound 96, 7-((8-(Heptadecan-9-yloxy)-8-oxooctyl)(2-hydroxyethyl)amino)heptyl decanoate] | 79.04% | 1.56E+10 | 3.43E+07 | 3.39E+08 | 1.209E+012 p/s*h | 120.5 nm | 82.6 nm | – | – | – | – |
| CCCCCCCCCOC(=O)CCCCCCCN(CCCCCCCC(=O)OC(CCCCCCCC)CCCCCCCC)CCN1CCOCC1 [Compound 103, Heptadecan-9-yl 8-((2-morpholinoethyl)(8-(nonyloxy)-8-oxooctyl)amino)octanoate] | 90.77% | 8.48E+07 | 2.06E+05 | 2.65E+06 | – | 78.8 nm | – | 2.4E+10 h*p/s | – | – | – |
| CCCCCCCCCOC(=O)CCCCCCCN(CCCCCCCC(=O)OC(CCCCCCCC)CCCCCCCC)CCCNC(=S)NC [Compound 113, Heptadecan-9-yl 8-((3-(3-methylthioureido)propyl)(8-(nonyloxy)-8-oxooctyl)amino)octanoate] | – | 1.11E+09 | 5.55E+06 | 5.22E+07 | – | 86.8 nm | – | – | 0.59 | 0.59 | 83.9 nm |
| CCCCCCCCCOC(=O)CCCCCCCN(CCO)CCCCCCCOP(=O)(OCCCCCCCC)OCCCCCCCC [Compound 131, Nonyl 8-((7-((bis(octyloxy)phosphoryl)oxy)heptyl)(2-hydroxyethyl)amino)octanoate] | 75.44% | 3.52E+08 | 1.45E+07 | 8.32E+08 | – | – | – | 9.29E+10 h*p/s | – | – | – |
| CCCCCCCCOP(=O)(OCCCCCCCC)OCCCCCCCN(CCO)CCCCCCCC(=O)OC(C)CCCCCCCC (stereo not shown) [Compound 132, Decan-2-yl 8-((7-((bis(octyloxy)phosphoryl)oxy)heptyl)(2-hydroxyethyl)amino)octanoate] | 30.77% | 1.49E+08 | 1.39E+07 | 3.37E+08 | – | – | – | 1.75E+10 h*p/s | – | – | – |
| CCCCCCCCC(CCCCCCCC)OC(=O)CCCCCCCN(CCO)CCCCCCCC(=O)N(C)CCCCCCCC [Compound 145, Heptadecan-9-yl 8-((2-hydroxyethyl)(8-(methyl(octyl)amino)-8-oxooctyl)amino)octanoate] | 89.15% | 5.01E+08 | 1.36E+07 | 4.25E+08 | – | – | – | 8.1E+10 h*p/s | – | – | – |
| CCCCCCCCC(CCCCCCCC)OC(=O)CCCCCCCN(CCO)CCCCCCCC(=O)OCC(CCCCCCC)OC (stereo not shown) [Compound 148, Heptadecan-9-yl 8-((2-hydroxyethyl)(8-((2-methoxynonyl)oxy)-8-oxooctyl)amino)octanoate] | 25.49% | 4.39E+09 | 3.27E+07 | 2.71E+09 | 4.965E+011 p/s*h | – | – | – | – | – | – |
| CCCCCCCCC(CCCCCCCC)OC(=O)CCCCCCCN(C)CCCCCCCCCC(=O)OCCCCCCC [Compound 149, Heptyl 10-((8-(heptadecan-9-yloxy)-8-oxooctyl)(methyl)amino)decanoate] | – | 1.11E+09 | 2.69E+06 | 2.71E+07 | 1.057E+011 p/s*h | 62.1 nm | – | – | – | – | – |
| CCCCCCCCCOC(=O)CCCCCCCN(CCO)CCCCCCC/C=C\C(CCCCCCCC)CCCCCCCC [Compound 152, Nonyl (Z)-8-((2-hydroxyethyl)(10-octyloctadec-8-en-1-yl)amino)octanoate] | – | 1.43E+08 | 3.16E+05 | 6.63E+06 | 2.855E+010 p/s*h | 62.6 nm | – | – | – | – | – |
| CCCCCCCCCOC(=O)CCCCCCCN(CCO)CCCCCCCCCC(CCCCCCCC)CCCCCCCC [Compound 153, Nonyl 8-((2-hydroxyethyl)(10-octyloctadecyl)amino)octanoate] | – | 1.18E+09 | 6.42E+06 | 1.42E+08 | 2.697E+011 p/s*h | 83.7 nm | – | – | – | – | – |
| CCCCCCCCC(CCCCCCCC)OC(=O)CCCCCCCN(CCO)CCCCCCCC(=O)OC(C)(C)C [Compound 155, tert-Butyl 8-((8-(heptadecan-9-yloxy)-8-oxooctyl)(2-hydroxyethyl)amino)octanoate] | 37.36% | 8.58E+08 | 1.00E+07 | 2.77E+08 | 1.266E+011 p/s*h | – | – | – | – | – | – |
| CCCCCCCCCOC(=O)CCCCCCCN(CCO)CCCCCCCC(=O)OC(C)(C)C [Compound 158, tert-Butyl 8-((2-hydroxyethyl)(8-(nonyloxy)-8-oxooctyl)amino)octanoate] | 35.70% | 1.99E+05 | 1.71E+04 | 1.17E+05 | 1.211E+007 p/s*h | – | – | – | – | – | – |
| CCCCCCCCCOC(=O)CCCCCCCN(CCO)CCN(CCO)CCCCCCCC(=O)OC(CCCCCCCC)CCCCCCCC [Compound 159, Heptadecan-9-yl 8-((2-hydroxyethyl)(2-((2-hydroxyethyl)(8-(nonyloxy)-8-oxooctyl)amino)ethyl)amino)octanoate] | – | 1.13E+06 | 2.17E+05 | 7.24E+05 | 1.355E+008 p/s*h | 75.9 nm | – | – | – | – | – |
| CCCCCCCCCOC(=O)CCCCCCCN(CCCCCCCC(=O)OC(CCCCCCCC)CCCCCCCC)CCCNC(=O)COC [Compound 178, Heptadecan-9-yl 8-((3-(2-methoxyacetamido)propyl)(8-(nonyloxy)-8-oxooctyl)amino)octanoate] | 94.7% | – | – | – | – | 104.2 nm | – | – | – | 0.03 | – |
| CCCCCCCCCOC(=O)CCCCCCCN(CCCCCCCC(=O)OC(CCCCCCCC)CCCCCCCC)CCCn1cc(CO)nn1 [Compound 218, Heptadecan-9-yl 8-((3-(4-(hydroxymethyl)-1H-1,2,3-triazol-1-yl)propyl)(8-(nonyloxy)-8-oxooctyl)amino)octanoate] | 98.8% | – | – | – | – | 81.4 nm | – | – | – | >0.01 | – |

Reference: patent US10857105B2, “Compounds and compositions for intracellular delivery of therapeutic agents” (ModernaTX, Inc., priority 2017, dated 2020)
